- melting point: 174 °C
SMILES: CCc1ccn(Cc2ccccc2O[C@@H]2O[C@H](CO)[C@@H](O)[C@H](O)[C@H]2O)c(=O)c1 [compound 1, 4-ethyl-1-[2-((2S,3R,4S,5S,6R)-3,4,5-trihydroxy-6-hydroxymethyltetrahydropyran-2-yloxy)benzyl]-1H-pyridin-2-one]

From US20070299065A1, “Tetrahydropyran Derivatives as Antidiabetics” (MERCK PATENT GMBH, priority 2004, published 2007)
